Literature values as cited in patent US20040097481A1, “Water-soluble mesoporphyrin compounds and methods of preparation” (priority 2002, published 2004).

Settings: product of the above-referenced known preparation methods

Q: For `CCC1=C(C)c2cc3[n-]c(cc4[n-]c(cc5nc(cc1n2)C(C)=C5CC)c(C)c4CCC(=O)O)c(CCC(=O)O)c3C.[Cl-].[Cl-].[Sn+4]` [stannsoporfin, Tin (IV) mesoporphyrin IX chloride], which Water solubility is on record?
A: Its Water solubility is “non-water soluble”.
